Measured values as given in patent US7053107B2, “Indazole compounds and pharmaceutical compositions for inhibiting protein kinases, and methods for their use” (Agouron Pharmaceuticals, Inc., priority 2002, dated 2006).

Columns and labels:
[1] = molecular target: T1, unphosphorylated VEGF-R2Δ50 (Homo sapiens, UniProt P35968, DEL940-989/E990V); test: VEGF-R2 coupled spectrophotometric assay, unphosphorylated construct (FLVK); format: biochemical; conditions: % inhibition at 50 nM compound; read-out: FLVK Ki % inh @ 50 nM
T1 construct: VEGF-R2Δ50 contains residues 806–939 and 990–1171; made in house; host or cells: baculovirus/insect cell system
T1 sequence (P35968 with tags, fused parts or gaps DEL940-989/E990V limits assumed): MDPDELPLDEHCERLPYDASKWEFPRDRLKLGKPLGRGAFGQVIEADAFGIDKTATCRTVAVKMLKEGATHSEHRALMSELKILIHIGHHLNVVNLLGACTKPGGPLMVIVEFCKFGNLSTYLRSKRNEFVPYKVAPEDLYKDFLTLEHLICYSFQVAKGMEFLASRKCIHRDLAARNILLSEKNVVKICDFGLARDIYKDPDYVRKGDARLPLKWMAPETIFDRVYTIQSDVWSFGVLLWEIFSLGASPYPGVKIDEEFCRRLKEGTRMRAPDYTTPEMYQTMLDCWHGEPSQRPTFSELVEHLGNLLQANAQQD
From the text: This construct determines the ability of a test compound to inhibit tyrosine kinase activity. A construct (VEGF-R2Δ50) of the cytosolic domain of human vascular endothelial growth factor receptor 2 (VEGF-R2) lacking the 50 central residues of the 68 residues of the kinase insert domain was expressed in a baculovirus/insect cell system. Of the 1356 residues of full-length VEGF-R2, VEGF-R2Δ50 contains residues 806–939 and 990–1171, and also one point mutation (E99OV) within the kinase insert domain relative to wild-type VEGF-R2. Autophosphorylation of the purified construct was performed by incubation of the enzyme at a concentration of 4 μM in the presence of 3 mM ATP and 40 mM MgCl2 in 100 mM HEPES, pH 7.5, containing 5% glycerol and 5 mM DTT, at 4° C. for 2 h. […] See Parast et al., Biochemistry, 37,16788–16801 (1998).
(§1) The production of ADP from ATP that accompanies phosphoryl transfer was coupled to oxidation of NADH using phosphoenolpyruvate (PEP) and a system having pyruvate kinase (PK) and lactic dehydrogenase (LDH). The oxidation of NADH was monitored by following the decrease of absorbance at 340 nm (e340=6.22 cm^−1 mM^−1) using a Beckman DU 650 spectrophotometer. Assay conditions for phosphorylated VEGF-R2A50 (indicated as FLVK-P in the tables below) were the following: 1 mM PEP; 250 μM NADH; 50 units of LDH/mL; 20 units of PK/mL; 5 mM DTT; 5.1 mM poly(E4Y1); 1 mM ATP; and 25 mM MgCl2 in 200 mM HEPES, pH 7.5. Assay conditions for unphosphorylated VEGF-R2Δ50 (indicated as FLVK in the tables) were the following: 1 mM PEP; 250 μM NADH; 50 units of LDH/mL; 20 units of PK/mL; 5 mM DTT; […]; 3 mM ATP; and 60 mM MgCl2 and 2 mM MnCl2 in 200 mM HEPES, pH 7.5. Assays were initiated with 5 to 40 nM of enzyme. Ki values were determined by measuring enzyme activity in the presence of varying concentrations of test compounds. The data were analyzed using Enzyme Kinetic and Kaleidagraph software.

[2] = system: human umbilical vein endothelial cells (HUVEC); test: HUVEC Proliferation Assay (VEGF-stimulated); format: cell-based
Experimental: This assay determines the ability of a test compound to inhibit the growth factor-stimulated proliferation of human umbilical vein endothelial cells (“HUVEC”). HUVEC cells (passage 3–4, Clonetics, Corp.) were thawed into EGM2 culture medium (Clonetics Corp) in T75 flasks. Fresh EGM2 medium was added to the flasks 24 hours later. Four or five days later, cells were exposed to another culture medium (F12K medium supplemented with 10% fetal bovine serum (FBS), 60 μg/mL endothelial cell growth supplement (ECGS), and 0.1 mg/mL heparin). Exponentially-growing HUVEC cells were used in experiments thereafter. Ten to twelve thousand HUVEC cells were plated in 96-well dishes in 100 μl of rich, culture medium (described above). The cells were allowed to attach for 24 hours in this medium. The medium was then removed by aspiration and 105 μl of starvation media (F12K+1% FBS) was added to each well. After 24 hours, 15 μl of test agent dissolved in 1% DMSO in starvation medium or this vehicle alone was added into each treatment well; the final DMSO concentration was 0.1%. One hour later, 30 μl of VEGF (30 ng/mL) in starvation media was added to all wells except those containing untreated controls; the final VEGF concentration was 6 ng/mL. Cellular proliferation was quantified 72 hours later by MTT dye reduction, at which time cells were exposed for 4 hours MTT (Promega Corp.). Dye reduction was stopped by addition of a stop solution (Promega Corp.) and absorbance at 595λ was determined on a 96-well spectrophotometer plate reader.
IC50 values were calculated by curve-fitting the response of A^595 to various concentrations of the test agent; typically, seven concentrations separated by 0.5 log were employed, with triplicate wells at each concentration. For screening compound library plates, one or two concentrations (one well per concentration) were employed, and the % inhibition was calculated by the following formula: % inhibition=(control−test)[…](control−starvation) where
control=A^595 when VEGF is present without test agent
test=A^595 when VEGF is present with test agent
starvation=A^595 when VEGF and test agent are both absent.

FGF-R1 = molecular target: T2, FGF-R1 (Homo sapiens, UniProt P11362, C488A/C584S/L457V); test: Fibroblast Growth Factor (FGF-R) spectrophotometric assay; format: biochemical; conditions: 1 μM compound; read-out: FGF-P % inhibit @1 μM
T2 construct: starting from the endogenous methionine residue 456 to glutamate 766; made in house; host or cells: baculovirus vector expression system
T2 sequence (P11362 456-766 L457V/C488A/C584S): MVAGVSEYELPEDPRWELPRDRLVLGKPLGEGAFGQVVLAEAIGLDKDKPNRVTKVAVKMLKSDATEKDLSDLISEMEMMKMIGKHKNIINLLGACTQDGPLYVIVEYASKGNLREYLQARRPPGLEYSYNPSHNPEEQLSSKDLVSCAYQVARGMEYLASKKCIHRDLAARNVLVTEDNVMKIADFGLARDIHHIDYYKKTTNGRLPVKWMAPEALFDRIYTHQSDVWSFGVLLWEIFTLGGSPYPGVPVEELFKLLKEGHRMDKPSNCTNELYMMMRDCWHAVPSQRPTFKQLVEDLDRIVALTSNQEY
From the text: The intracellular kinase domain of human FGF-R1 was expressed using the baculovirus vector expression system starting from the endogenous methionine residue 456 to glutamate 766, according to the residue numbering system of Mohammadi et al., Mol. Cell. Biol., 16, 977–989 (1996). In addition, the construct also has the following 3 amino acid substitutions: L457V, C488A, and C584S.
as §1
The spectrophotometric assay was carried out as described above for VEGF-R2, except for the following changes in concentration: FGF-R=50 nM, ATP=2 mM, and poly(E4Y1)=15 mM.

PDGFRβ = molecular target: T3, PDGFRβ (Homo sapiens, UniProt P09619); test: PAE-PDGFRβ Phosphorylation in PAE-PDGFRB Cells Assay; format: cell-based; conditions: PAE cells overexpressing human PDGFRβ; read-out: PAE PDGFR autophos IC50
T3 construct: expressed in transfected cells; host or cells: porcine aorta endothelial (PAE) cells
T3 sequence (P09619 33-1106): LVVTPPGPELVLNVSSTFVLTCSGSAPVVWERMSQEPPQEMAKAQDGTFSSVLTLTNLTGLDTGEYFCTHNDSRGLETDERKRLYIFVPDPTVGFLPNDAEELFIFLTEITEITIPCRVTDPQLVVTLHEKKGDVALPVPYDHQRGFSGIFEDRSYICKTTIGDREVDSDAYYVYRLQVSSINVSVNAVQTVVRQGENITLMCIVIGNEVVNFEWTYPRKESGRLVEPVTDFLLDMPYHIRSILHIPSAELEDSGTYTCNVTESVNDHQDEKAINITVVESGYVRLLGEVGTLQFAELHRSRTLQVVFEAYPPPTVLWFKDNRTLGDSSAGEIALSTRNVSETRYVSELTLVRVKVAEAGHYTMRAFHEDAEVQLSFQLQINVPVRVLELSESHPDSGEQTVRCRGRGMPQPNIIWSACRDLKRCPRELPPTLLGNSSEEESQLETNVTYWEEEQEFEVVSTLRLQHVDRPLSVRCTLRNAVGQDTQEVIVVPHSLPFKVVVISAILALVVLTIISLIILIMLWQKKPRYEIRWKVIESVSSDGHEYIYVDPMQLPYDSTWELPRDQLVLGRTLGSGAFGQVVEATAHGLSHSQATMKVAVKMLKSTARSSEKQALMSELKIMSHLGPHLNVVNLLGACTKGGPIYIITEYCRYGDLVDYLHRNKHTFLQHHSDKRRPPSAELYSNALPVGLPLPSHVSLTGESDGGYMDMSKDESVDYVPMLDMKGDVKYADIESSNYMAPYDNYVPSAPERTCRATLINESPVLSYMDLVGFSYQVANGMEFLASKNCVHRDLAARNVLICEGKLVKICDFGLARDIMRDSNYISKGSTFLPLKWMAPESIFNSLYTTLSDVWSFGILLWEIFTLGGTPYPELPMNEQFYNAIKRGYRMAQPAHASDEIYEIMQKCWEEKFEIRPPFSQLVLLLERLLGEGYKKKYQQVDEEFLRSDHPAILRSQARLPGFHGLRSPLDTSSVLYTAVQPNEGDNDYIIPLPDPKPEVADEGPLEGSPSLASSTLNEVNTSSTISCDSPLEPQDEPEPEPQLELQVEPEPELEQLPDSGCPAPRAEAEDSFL
Experimental: This assay determines the ability of a test compound to inhibit the autophosphorylation of PDGFRβ in porcine aorta endothelial (PAE)-PDGFRβ cells. PAE cells that overexpress human PDGFRβ were used in this assay. The cells were cultured in Ham's F12 media supplemented with 10% fetal bovine serum (FBS) and 400 ug/ml G418. Twenty thousands cells were seeded in each well of a 96-well plate in 50 μL of growth media and allowed to attach for 6 hours at 37° C. Cells were then exposed to the starvation media (Ham's F12 media supplemented with 0.1% FBS) for 16 hours. After the starvation period was over, 10 μL of test agent in 5% DMSO in starvation media were added to the test wells and 10 μL of the vehicle (5% DMSO in starvation media) were added into the control wells. The final DMSO concentration in each well was 0.5%. Plates were incubated at 37° C. for 1 hour and the cells were then stimulated with 1 μg/mL PDGF-BB (R & D System) in the presence of 2 mM Na3VO4 for 8 minutes. The cells were washed once with 1 mm Na3VO4 in HBSS and lysed by adding 50 μL per well of lysis buffer. One hundred μL of dilution buffer were then added to each well and the diluted cell lysate was transferred to a 96-well goat ant-rabbit coated plate (Pierce), which was pre-coated with Rabbit anti Human PDGFRβ antibody (Santa Cruz). The plates were incubated at room temperature for 2 hours and washed seven times with 1% Tween 20 in PBS. HRP-PY20 (Santa Cruz) was diluted and added to the plate for a 30-minute incubation. Plates were then washed again and TMB peroxidase substrate (Kirkegaard & Perry) was added for a 10-minute incubation. One hundred μL of 0.09 N H2SO4 was added into each well of the 96-well plate to stop the reaction. Phosphorylation status was assessed by spectrophotometer reading at 450 nm. IC50 values were calculated by curve fitting using a four-parameter analysis.

Compound | inhibition at 0.05 µM [1] | IC50 [2] | inhibition at 1 µM (FGF-R1) | IC50 (PDGFRβ)
C#CCNC(=O)c1ccccc1Nc1ccc2c(C(=O)NC)n[nH]c2c1 [Example 1(k), 6-(2-Prop-2-ynylcarbamoyl-phenylamino)-1H-indazole-3-carboxylic acid methylamide] | 27% | > 10 nM | 12% | –
C#CCNC(=O)c1ccccc1Nc1ccc2c(/C=C/c3cc(C)cc(C)n3)n[nH]c2c1 [Example 13, N-(prop-2-ynyl)-2-{3-[(E)-2-(2,4-dimethyl-pyridin-2-yl)-vinyl]-1H-indazol-6-ylamino}-benzamide] | 80% | – | 63% | 6 nM
CC(=O)OCC#CCNC(=O)c1ccccc1Nc1ccc2c(/C=C/c3cc(C)cc(C)n3)n[nH]c2c1 [Example 20, Acetic acid 4-(2-{3-[(E)-2-(4,6-dimethyl-pyridin-2-yl)-vinyl]-1H-indazol-6-ylamino}-benzoylamino)-but-2-ynyl ester] | 91% | 0.084 nM | 35% | –
Cc1cc(C)nc(/C=C/c2n[nH]c3cc(Nc4ncccc4C(=O)NCC#CC4CC4)ccc23)c1 [Example 25, N-(3-Cyclopropyl-prop-2-ynyl)-2-{3-[(E)-2-(4,6-dimethyl-pyridin-2-yl)-vinyl]-1H-indazol-6-ylamino}-nicotinamide] | 64% | 3 nM | 13% | –
C=C(C)CNC(=O)c1ccccc1Nc1ccc2c(/C=C/c3cc(C)ccn3)n[nH]c2c1 [Example 34, N-(2-Methyl-allyl)-2-{[(E)-2-(4-methyl-pyridin-2-yl)-vinyl]-1H-indazol-6-ylamino}-benzamide] | 72% | – | – | 4.5 nM
Cc1ccnc(/C=C/c2n[nH]c3cc(Nc4ccccc4C(=O)NCc4cccc(C)n4)ccc23)c1 [Example 39, N-(6-Methyl-pyridin-2-ylmethyl)-2-{3-[2-(4-methyl-pyridin-2-yl)-vinyl]-1H-indazol-6-ylamino}-benzamide] | 96% | – | 76% | 4.7 nM
Cc1ccnc(/C=C/c2n[nH]c3cc(Nc4ccccc4C(=O)NCc4nc5ccccc5n4C)ccc23)c1 [Example 45, N-(1-Methyl-1H-benzoimidazol-2-ylmethyl)-2-{3-[(E)2-(4-methyl-pyridin-2-yl)-vinyl]-1H-indazol-6-ylamino}-benzamide] | 28% | – | 24% | –
Cc1ccnc(/C=C/c2n[nH]c3cc(Nc4ccccc4C(=O)NCc4nccn4C)ccc23)c1 [Example 49, N-(1-Methyl-1H-imidazol-2-ylmethyl)-2-{3-[2-(4-methyl-pyridin-2-yl)-vinyl]-1H-indazol-6-ylamino}-benzamide] | 11% | – | 36% | –
Cc1ccnc(/C=C/c2n[nH]c3cc(Nc4ccccc4C(=O)NCC#CCO)ccc23)c1 [Example 51, 2-{3-[(E)-2-(4-Methyl-pyridin-2-yl)-vinyl]-1H-indazol6-ylamino}-N-(4-hydroxy-but-2-ynyl)-benzamide] | 82% | – | 52% | –
O=C(NCC#CC1CC1)c1ccccc1Nc1ccc2c(/C=N/n3cccc3)n[nH]c2c1 [Example 55, N-(3-Cyclopropyl-prop-2-ynyl)-2-[3-(pyrrol-1-yliminomethyl)-1H-indazol-6-ylamino]-benzamide] | 97% | 0.2 nM | 67% | 3.7 nM
O=C(NCC#CCO)c1ccccc1Nc1ccc2c(/C=N/n3cccc3)n[nH]c2c1 [Example 57, N-(4-Hydroxy-but-2-ynyl)-2-[3-(pyrrol-1-yliminomethyl)-1H-indazol-6-ylamino]-benzamide] | 91% | < 1.8 nM | 52% | 1.3 nM
C#CCNC(=O)c1ccccc1Nc1ccc2c(/C=N/n3cccc3)n[nH]c2c1 [Example 63, N-Prop-2-ynyl-2-[3-(pyrrol-1-yliminomethyl)-1H-indazol-6-ylamino]-benzamide] | 85% | 0.1 nM | 63% | 2.4 nM
